For two compounds, IC50 and EC50 results are on record in patent publication US9072734B2, “Quaternary ammonium salt compounds” (Teijin Pharma Limited, priority 2009, dated 2015).

The IC50 is the point on the concentration scale where inhibition reaches its midpoint. In general, EC50 refers to the concentration that produces a half-maximal response. Read a low EC50 as higher potency in that assay.

The target in test [1] is T1, human M3 muscarinic receptor (Homo sapiens, UniProt P20309).
T1 construct: expressed in transfected cells; host or cells: CHO-K1
The experiment in a line: Inhibitory effect on methacholine-induced calcium influx, FLIPR assay, CHO-K1 cells stably expressing the human M3 muscarinic receptor. Type of test: cell-based. As to conditions: inhibition of calcium influx induced by methacholine. The essentials: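 Dye-loaded hM3 CHO-K1 cells were preincubated 180 s with compound solutions prepared at 10 two-fold concentrations (0.01–1000 nM). A 30 nM methacholine solution was then added. Fluorescence was traced for 170 s; max−min signal gave % inhibition against agonist and no-agonist controls, and IC50 came from a four-parameter logistic fit.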

Test [2] deals with T2, human β2 adrenergic receptor (Homo sapiens, UniProt P07550).
T2 construct: expressed in transfected cells; host or cells: CHO-K1
The test can be described thus: Whole-cell cAMP Flashplate assay using CHO-K1 cells stably expressing human β2 adrenergic receptor. Type of test: cell-based. As to conditions: cAMP production. (cAMP levels reflect the balance of adenylyl cyclase and phosphodiesterase activity.)

In test [3] the target is T1, human M3 muscarinic receptor. The test can be described thus: Competition binding assays to human M3 muscarinic receptor ([3H]-NMS displacement, membrane fractions). As to conditions: competition with 1 nM [3H]-NMS. How it is done:
Membrane fractions of human M3 muscarinic receptor were purchased from PerkinElmer, Inc. and stored at −80° C. until use. Phosphate buffered saline (PBS(−), Invitrogen, Co.) was used as assay buffer. The membrane fractions of human M3 muscarinic receptor (10-15 μg of membrane protein) and 1 nM L-[N-methyl-3H]scopolamine methyl chloride ([3H]—NMS) (NET636, 2.59 TBq/mmol, PerkinElmer, Inc.) were added to a final volume of 100 μL and incubated for 2 hours at room temperature (total binding). […] The amount of nonspecific binding was determined in the presence of 5 μM atoropine. […] The filter plates were washed three times with a washing solution (50 mM Tris hydrochloric acid pH 7.4, 0.9% sodium chloride) to remove unbound radioactivity. The plates were then dried and 40 μL Microscint-20 liquid TopCount microplate scintillation cocktail (PerkinElmer Inc.) was added and plates were counted in a Packard TopCount liquid scintillation counter (PerkinElmer, Inc.). The percentage of the binding inhibition by the test compound was calculated according to the following formula. (%)Percentage of binding inhibition=[(Radioactivity of test compound-added sample−Amount of nonspecific binding)/(Amount of total binding−Amount of nonspecific binding)]×100 […]

Where a name gives a salt, the structure may show the parent alone.

T1 sequence (P20309 whole entry): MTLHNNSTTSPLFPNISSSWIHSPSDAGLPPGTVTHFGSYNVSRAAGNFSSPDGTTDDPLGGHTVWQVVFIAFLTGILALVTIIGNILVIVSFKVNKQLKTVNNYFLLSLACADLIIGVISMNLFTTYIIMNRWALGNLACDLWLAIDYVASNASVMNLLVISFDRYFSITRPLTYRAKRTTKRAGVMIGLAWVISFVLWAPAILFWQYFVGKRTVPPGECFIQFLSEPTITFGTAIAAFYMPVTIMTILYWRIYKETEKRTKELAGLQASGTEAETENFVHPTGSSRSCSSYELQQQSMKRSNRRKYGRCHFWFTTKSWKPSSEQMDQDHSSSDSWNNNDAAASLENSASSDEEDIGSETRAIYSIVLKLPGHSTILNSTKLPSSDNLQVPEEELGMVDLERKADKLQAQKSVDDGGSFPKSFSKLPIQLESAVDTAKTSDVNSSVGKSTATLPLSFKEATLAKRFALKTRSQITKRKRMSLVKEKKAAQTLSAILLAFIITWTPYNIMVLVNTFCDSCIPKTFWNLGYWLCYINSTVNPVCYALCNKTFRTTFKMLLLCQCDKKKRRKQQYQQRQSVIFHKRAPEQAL
T2 sequence (P07550 whole entry): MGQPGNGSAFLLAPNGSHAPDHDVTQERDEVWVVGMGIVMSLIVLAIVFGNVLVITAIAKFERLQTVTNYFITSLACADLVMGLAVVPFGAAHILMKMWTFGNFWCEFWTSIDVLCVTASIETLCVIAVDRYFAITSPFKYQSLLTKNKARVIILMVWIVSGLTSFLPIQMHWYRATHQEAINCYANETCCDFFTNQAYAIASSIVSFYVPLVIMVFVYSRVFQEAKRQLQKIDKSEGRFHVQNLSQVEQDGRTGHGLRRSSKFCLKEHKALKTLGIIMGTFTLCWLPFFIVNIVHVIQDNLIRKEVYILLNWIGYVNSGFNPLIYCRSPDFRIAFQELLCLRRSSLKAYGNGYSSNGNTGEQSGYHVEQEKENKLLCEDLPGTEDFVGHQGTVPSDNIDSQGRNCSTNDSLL

On to `COc1cc(NC(=O)CCCCc2ccc(-c3ccccc3)c(NC(=O)OC3CC[N+](C)(C)CC3)c2)c(Cl)cc1CNC[C@H](O)c1ccc(O)c2[nH]c(=O)ccc12` [Example 51, 4-({[5-(4-{[2-chloro-4-({[(2R)-2-hydroxy-2-(8-hydroxy-2-oxo-1,2-dihydroquinolin-5-yl)ethyl]amino}methyl)-5-methoxyphenyl]carbamoyl}butyl)-2-phenylphenyl]carbamoyl}oxy)-1,1-dimethylpiperidin-1-ium trifluoroacetate], for which the results for the IC50 in test [1] and in test [3] were 13.2 nM and less than 10 nM, respectively. In test [2], this compound yielded an EC50 of 0.3 nM.

For `C[N+]1(C)CCC(OC(=O)Nc2cc(CCC(=O)Nc3ccc(CNC[C@H](O)c4ccc(O)c5[nH]c(=O)ccc45)cc3)ccc2-c2ccccc2)CC1` [Example 1, 4-({[5-(2-{[4-({[(2R)-2-hydroxy-2-(8-hydroxy-2-oxo-1,2-dihydroquinolin-5-yl)ethyl]amino}methyl)phenyl]carbamoyl}ethyl)-2-phenylphenyl]carbamoyl}oxy)-1,1-dimethylpiperidin-1-ium trifluoroacetate], the IC50 in test [1] was 6.4 nM; in test [3], less than 10 nM. Moreover, a half-maximal response in test [2] (EC50) required 1.3 nM.
